From PMC3326647, “Single Enantiomer of YK-4-279 Demonstrates Specificity in Targeting the Oncogene EWS-FLI1” (Oncotarget, 2012)
pIC50: −log10 of the molar value. Read-outs that look alike come from different tables or passages of the source.

Legend:
[1] = system: Cyclin D1b/D1a mRNA level in A673i cells; test: Quantitative RT-PCR of Cyclin D1b/D1a mRNA in A673i cells; format: cell-based; settings: 1μM, 8 hours
Method: A673i cells were treated with 1μM small molecule for 8 hours. Positive control cells were treated with tetracycline for 72 hours to knock down expression of EWS-FLI1. Total RNA was extracted using an RNeasy Micro Kit (Qiagen) and reverse transcribed using the Transcriptor First Strand cDNA Synthesis Kit (Roche) per the manufacturer's instructions. qPCR was performed using an Eppendorf Mastercycler Realplex with FastStart Universal SYBR Green Master with ROX (Roche) with primers for 18S, CyclinD1a, and CyclinD1b. Data were analyzed for expression relative to 18S using the comparative Ct method. Data from four separate experiments performed in duplicate were averaged.

[2] = system: ASPC1 cells; test: Cellular proliferation (WST) assay, ASPC1; format: cell-based; settings: Homo sapiens, 72 h; ASPC1, pancreatic; read-out: IC50 at 3 days (+/− SEM)
Method: (§1) TC32, TC71, RDES, MMH-ES-1, STA-ET 7.2, A4573, and PC3 cells were grown in RPMI with 10% FBS and 1% HEPES. SKES cells were grown in McCoy's 5A medium with 15% FBS. MCF7, MDA-MB-231, PANC1, and ASPC1 cells were grown in colorless DMEM with 10% FBS. Cells were grown at a plating density of 5,000 – 15,000 cells/well, depending on cell line, in a 96-well plate. Small molecule or vehicle alone (DMSO) were added to cells in appropriate growth media the day after plating. After three days, viable cells were quantified using WST (Roche) according to the manufacturer's protocol. IC50 values were calculated by sigmoidal dose-response curve fit using Prism Graphpad 4.0.

[3] = system: MDA-MB-231 cells; test: Cellular proliferation (WST) assay, MDA-MB-231; format: cell-based; settings: Homo sapiens, 72 h; MDA-MB-231, breast; read-out: IC50 at 3 days (+/− SEM)
Method: as §1

[4] = system: A4573 cells; test: Cellular proliferation (WST) assay, A4573; format: cell-based; settings: 72 h; A4573, ESFT (Type 3); read-out: IC50 at 3 days (+/− SEM)
Method: as §1

[5] = system: RDES cells; test: Cellular proliferation (WST) assay, RDES; format: cell-based; settings: for pIC50: RD-ES, 72 h, RDES, ESFT (Type 2), read-out: IC50 at 3 days (+/− SEM)
Method: as §1

[6] = system: PANC1 cells; test: Cellular proliferation (WST) assay, PANC1; format: cell-based; settings: Homo sapiens, PANC-1, 72 h; PANC1, pancreatic; read-out: IC50 at 3 days (+/− SEM)
Method: as §1

[7] = system: MCF7 cells; test: Cellular proliferation (WST) assay, MCF7; format: cell-based; settings: Homo sapiens, 72 h; MCF7, breast; read-out: IC50 at 3 days (+/− SEM)
Method: as §1

[8] = system: TC71 cells; test: Cellular proliferation (WST) assay, TC71; format: cell-based; settings: for pIC50: TC-71, 72 h, TC71, ESFT (Type 1), read-out: IC50 at 3 days (+/− SEM)
Method: as §1

[9] = system: EWS-FLI1 and RHA; test: ELISA of binding between EWS-FLI1 and RHA
Method: EWS-FLI1 was used to coat the surface of a 96 well plate (MaxiSorb) at a concentration of 150ng/well in 100μL buffer containing 20mM Tris, 500mM sodium chloride, and 1M imidazole. Following overnight incubation, the plate was blocked with 4% BSA in PBS and washed with PBS + 0.1% Tween-20. Small molecules were added at concentrations of 1μM, 3μM, 10μM, and 30μM, followed by RHA (300ng/well) and allowed to incubate overnight. Following washing, incubation with RHA antibody (Everest) and anti-goat secondary, protein binding was detected using a TMB Peroxidase EIA Substrate Kit (Bio-Rad) per the manufacturer's instructions.

[10] = system: PC3 cells; test: Cellular proliferation (WST) assay, PC3; format: cell-based; settings: Homo sapiens, PC-3, 72 h, read-out: IC50 at 3 days (+/− SEM)
Method: as §1

[11] = target: T1, EWS-FLI1 transcriptional activity (Homo sapiens, UniProt Q01543+Q01844); test: NR0B1-luciferase reporter assay in COS7 cells transfected with EWS-FLI1; format: cell-based; settings: for luciferase activity compared to vehicle: COS7 cells, dose of 0.3μM
T1 sequence (Q01844 1-264): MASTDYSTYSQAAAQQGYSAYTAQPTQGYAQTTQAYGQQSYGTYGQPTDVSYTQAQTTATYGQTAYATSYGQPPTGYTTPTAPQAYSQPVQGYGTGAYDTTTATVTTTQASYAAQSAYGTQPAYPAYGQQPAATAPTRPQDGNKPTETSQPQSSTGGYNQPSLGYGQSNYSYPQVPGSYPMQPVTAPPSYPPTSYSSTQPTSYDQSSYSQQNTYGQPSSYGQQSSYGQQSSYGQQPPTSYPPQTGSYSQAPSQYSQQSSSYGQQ
T1 sequence (Q01543 220-452): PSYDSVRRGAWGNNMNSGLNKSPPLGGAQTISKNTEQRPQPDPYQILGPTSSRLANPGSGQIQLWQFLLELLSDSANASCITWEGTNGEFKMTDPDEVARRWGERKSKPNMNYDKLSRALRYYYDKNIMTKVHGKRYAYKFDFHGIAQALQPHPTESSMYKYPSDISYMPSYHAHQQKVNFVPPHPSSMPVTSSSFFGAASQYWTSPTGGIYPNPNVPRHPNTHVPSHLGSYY
Method: Cells were transiently transfected with the NR0B1 luciferase reporter and full length EWS-FLI1 into COS7 cells with Fugene-6 (Roche) according to the manufacturer's protocol. Two hours after transformation, cells were treated with 0.3, 1, and 3μM of YK-4-279, (S)-YK-4-279, and (R)-YK-4-279. Luciferase activity was measured 16 hours after treatment. Protein concentration was normalized by absorbance at 280nm. All luciferase assays were performed using a luciferase assay kit according to the manufacturer's protocol (Promega).

[12] = system: non-ESFT cell lines (PC3, MCF7, MDA-MB-231, PANC1, ASPC1); test: Cellular proliferation (WST) assay, panel of five non-ESFT cell lines; format: cell-based; settings: 72 h
Method: as §1

[13] = read-out: Mean IC50 at 3 days (+/− SEM), mean over five non-ESFT cell lines
[14] = as little as 1μM small molecule

Compound: COc1ccc(C(=O)C[C@]2(O)C(=O)Nc3c(Cl)ccc(Cl)c32)cc1 [(R)-YK-4-279]
- D1b/D1a mRNA ratio [1]: maintained a D1b/D1a ratio equivalent to the vehicle treated cells
- pIC50 [2]: < 4.52
- pIC50 [3]: 4.66
- pIC50 [4]: 4.93
- pIC50 [5]: 4.90
- pIC50 [6]: 4.60
- pIC50 [7]: < 4.52
- pIC50 [8]: 4.68
- inhibition of EWS-FLI1/RHA binding ([9]; 30μM): does not inhibit the binding
- pIC50 [10]: < 4.52
- luciferase activity compared to control ([11]; COS7 cells, 0.3, 1 and 3μM): did not show significant reduction from control
- pIC50 [12, 13]: < 4.52

Compound: COc1ccc(C(=O)C[C@@]2(O)C(=O)Nc3c(Cl)ccc(Cl)c32)cc1 [(S)-YK-4-279]
- D1b/D1a mRNA ratio [1]: reduced this ratio to a level equivalent to the EWS-FLI1 reduction
- more potent at the D1b/D1a reduction than racemic [1]: approximately 35%
- pIC50 [2]: 5.09
- pIC50 [3]: 5.93
- pIC50 [4]: 6.64
- pIC50 [5]: 6.06
- fold-difference in IC50 between the racemic and the active enantiomer ([5]; RDES cells): 1.18 fold
- pIC50 [6]: 5.77
- pIC50 [7]: 4.71
- fold-difference in IC50 between the racemic and the active enantiomer ([8]; TC71 cells): more than a log-fold difference
- pIC50 [8]: 6.80
- inhibition of EWS-FLI1/RHA binding [9, 14]: able to inhibit the protein-protein interaction
- pIC50 [10]: 5.42
- luciferase activity compared to vehicle [11]: significantly reduced
- pIC50 [12, 13]: 5.16

Compound: COc1ccc(C(=O)CC2(O)C(=O)Nc3c(Cl)ccc(Cl)c32)cc1 (stereo not drawn) [YK-4-279]
- D1b/D1a mRNA ratio [1]: reduction in the D1b/D1a levels
- pIC50 [2]: 4.85
- pIC50 [3]: 6.09
- pIC50 [4]: 5.84
- pIC50 [5]: 5.99
- pIC50 [6]: 5.82
- pIC50 [7]: 4.64
- pIC50 [8]: 5.74
- inhibition of EWS-FLI1/RHA binding [9, 14]: able to inhibit the protein-protein interaction
- pIC50 [10]: 5.31
- luciferase activity compared to vehicle [11]: not significant
- pIC50 ([12]; read-out: Mean IC50 at 3 days (+/− SEM)): 5.05
